The nature of this series: recombinant barcode read abundance after kanamycin selection (control-corrected) (log10(CPM+1)); higher = more efficient recombination; sequences stand for … in AGTGCAGAGAAAATCGGCCAGTTTTCTCTGCCTGCAGTCCGCATGCCGT…AGATTTATGCAGCGGACTGCCTTTCTCCCAAAGTGATAAACCGGACAGTATCATGGACCGGTTTTCCCGGTAATCCGTATTTGCAAGGTTGGTTTCACT; site = the 11-nt target. A digest of the protocol:
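In a pooled screen in E. coli, targets were paired with target-binding loops of the IS621 bridge RNA. Each oligo carried a promoter, a target, a barcode and the first 104 bridge RNA bases driven by J23119, and was Gibson-cloned into a vector holding the remaining 73 bp and a T7-inducible recombinase before co-electroporation with a donor plasmid. Duplicate platings went onto chloramphenicol/ampicillin LB agar as the control or onto chloramphenicol/ampicillin/kanamycin with 0.1 mM IPTG. Recombination efficiency is the averaged, control-corrected count per million of barcodes at recombinant junctions, given as log10(CPM+1).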
Consider “TCGGAGTCTTGGGTTCTAACCTGTTGCGT (site TCGGAGTCTAT)”, for which the “recombinant barcode read abundance (log10)” value worked out at 2.39.

Turning to “TCGGATACTTGGGTTCTAACCTGTTGCAT (site TCGGATACTAA)”, the “recombinant barcode read abundance (log10)” value was 0.31.

On to “TCGGATACTTGGGTTCTAACCTGTTGCAT (site TCGGATACTAC)”, for which the “recombinant barcode read abundance (log10)” value is 0.0629.

For “TCGGATACTTGGGTTCTAACCTGTTGCAT (site TCGGATACTAG)”, the “recombinant barcode read abundance (log10)” value was found to be 0.173. With “TCGGATACTTGGGTTCTAACCTGTTGCAT (site TCGGATACTAT)” the figure was 1.57. On to “TCGGATACTTGGGTTCTAACCTGTTGCCT (site TCGGATACTAA)”, for which the “recombinant barcode read abundance (log10)” value came out at 0.119. Consider “TCGGATACTTGGGTTCTAACCTGTTGCCT (site TCGGATACTAC)”, for which the “recombinant barcode read abundance (log10)” value was 0.0175. With “TCGGATACTTGGGTTCTAACCTGTTGCCT (site TCGGATACTAG)” the figure was 1.54; with “TCGGATACTTGGGTTCTAACCTGTTGCCT (site TCGGATACTAT)”, 0.0399. Under “TCGGATACTTGGGTTCTAACCTGTTGCGT (site TCGGATACTAA)” stands 0.0447. Consider “TCGGATACTTGGGTTCTAACCTGTTGCGT (site TCGGATACTAC)”, for which the “recombinant barcode read abundance (log10)” value is 2.05. Take “TCGGATACTTGGGTTCTAACCTGTTGCGT (site TCGGATACTAG)”: the “recombinant barcode read abundance (log10)” value was found to be 0.265. With “TCGGATACTTGGGTTCTAACCTGTTGCGT (site TCGGATACTAT)” the figure was 1.41. With “TCGGATGCTTGGGTTCTAACCTGTTGCTT (site TCGAATGCTAG)” the figure was 0.349; with “TCGGATGCTTGGGTTCTAACCTGTTGCTT (site TCGGATGCTAA)”, 0.901; with “TCGGGGACTTGGGTTCTAACCTGTTGCCG (site TCAGGGACTCT)”, 0.183. Under “TCGGGGACTTGGGTTCTAACCTGTTGCCG (site TCGGGGACTCG)” stands 0.601; under “TCGTACCCTTGGGTTCTAACCTGTTGCAA (site AAAATATCTAG)”, 0.083; under “TCGTACCCTTGGGTTCTAACCTGTTGCAA (site TCGTACCCTTT)”, 0.143. On to “TCGTCTACTTGGGTTCTAACCTGTTGCTC (site ATCAACCCTTG)”, for which the “recombinant barcode read abundance (log10)” value was determined as 0.117. Under “TCGTCTACTTGGGTTCTAACCTGTTGCTC (site TCGTCTACTGA)” stands 0.26; under “TCGTGCCCTTGGGTTCTAACCTGTTGCGT (site CCGTGCCCTAC)”, 0.0929; under “TCGTGCCCTTGGGTTCTAACCTGTTGCGT (site TCGTGCCCTAC)”, 0.14. Under “TCGTTTCCTTGGGTTCTAACCTGTTGCAT (site AGCCAGGCTCC)” stands 0.0113; under “TCGTTTCCTTGGGTTCTAACCTGTTGCAT (site TCGTTTCCTAT)”, 0.0275. “TCTAAACCTTGGGTTCTAACCTGTTGCCT (site TCTAAACCTAG)”: the “recombinant barcode read abundance (log10)” value amounted to 0.205. Regarding “TCTAAACCTTGGGTTCTAACCTGTTGCCT (site TCTCAACCTAG)”, the “recombinant barcode read abundance (log10)” value is 0.0726. With “TCTAACACTTGGGTTCTAACCTGTTGCCT (site ACTAACACTAG)” the figure was 0.0882; with “TCTAACACTTGGGTTCTAACCTGTTGCCT (site CCTAACACTAG)”, 0.0793. Take “TCTAACACTTGGGTTCTAACCTGTTGCCT (site GCTAACACTAG)”: the “recombinant barcode read abundance (log10)” value is 0.0247.

Turning to “TCTAACACTTGGGTTCTAACCTGTTGCCT (site TCTAACACTAG)”, the “recombinant barcode read abundance (log10)” value worked out at 0.206. With “TCTAAGGCTTGGGTTCTAACCTGTTGCCT (site TCAAAGGCTAG)” the figure was 0.36. With “TCTAAGGCTTGGGTTCTAACCTGTTGCCT (site TCCAAGGCTAG)” the figure was 0.108; with “TCTAAGGCTTGGGTTCTAACCTGTTGCCT (site TCGAAGGCTAG)”, 0.048. On to “TCTAAGGCTTGGGTTCTAACCTGTTGCCT (site TCTAAGGCTAG)”, for which the “recombinant barcode read abundance (log10)” value is 0.043.

Turning to “TCTAAGTCTTGGGTTCTAACCTGTTGCCA (site TCTAAGTCTAG)”, the “recombinant barcode read abundance (log10)” value is 0.045. For the sequence “TCTAAGTCTTGGGTTCTAACCTGTTGCCA (site TCTAAGTCTCG)”, the “recombinant barcode read abundance (log10)” value was 0.144. For “TCTAAGTCTTGGGTTCTAACCTGTTGCCA (site TCTAAGTCTGG)”, the “recombinant barcode read abundance (log10)” value stood at 0.695. With “TCTAAGTCTTGGGTTCTAACCTGTTGCCA (site TCTAAGTCTTG)” the figure was 0.0536; with “TCTACATCTTGGGTTCTAACCTGTTGCCT (site TCTACATCTAG)”, 0.0728; with “TCTACATCTTGGGTTCTAACCTGTTGCCT (site TCTACCTCTAG)”, 0.0374.

Take “TCTACATCTTGGGTTCTAACCTGTTGCCT (site TCTACGTCTAG)”: the “recombinant barcode read abundance (log10)” value is 0.0302. With “TCTACATCTTGGGTTCTAACCTGTTGCCT (site TCTACTTCTAG)” the figure was 0.0355. Under “TCTAGAACTTGGGTTCTAACCTGTTGCCT (site TCTAGAACTAG)” stands 0.0829.

For the sequence “TCTAGAACTTGGGTTCTAACCTGTTGCCT (site TCTAGACCTAG)”, the “recombinant barcode read abundance (log10)” value was determined as 0.0178. With “TCTAGAACTTGGGTTCTAACCTGTTGCCT (site TCTAGAGCTAG)” the figure was 0.0689; with “TCTAGAACTTGGGTTCTAACCTGTTGCCT (site TCTAGATCTAG)”, 0.0276. For “TCTAGACCTTGGGTTCTAACCTGTTGCCA (site TCTAGACCTTG)”, the “recombinant barcode read abundance (log10)” value amounted to 0.0618.

In the case of “TCTAGACCTTGGGTTCTAACCTGTTGCCA (site TCTAGTCCTAG)”, the “recombinant barcode read abundance (log10)” value was 0.564. With “TCTATGTCTTGGGTTCTAACCTGTTGCCT (site TCTATGACTAG)” the figure was 0.182.

“TCTATGTCTTGGGTTCTAACCTGTTGCCT (site TCTATGTCTAG)”: the “recombinant barcode read abundance (log10)” value is 0.107.

Consider “TCTCAGGCTTGGGTTCTAACCTGTTGCAG (site TATCAGACTCT)”, for which the “recombinant barcode read abundance (log10)” value is 0.0549.

“TCTCAGGCTTGGGTTCTAACCTGTTGCAG (site TCTCAGGCTCT)”: the “recombinant barcode read abundance (log10)” value was determined as 0.445. For “TCTCCTCCTTGGGTTCTAACCTGTTGCAT (site GAGGTCACTTA)”, the “recombinant barcode read abundance (log10)” value was 0.115. On to “TCTCCTCCTTGGGTTCTAACCTGTTGCAT (site TCTCCTCCTAT)”, for which the “recombinant barcode read abundance (log10)” value came to 0.679. For “TCTCGGTCTTGGGTTCTAACCTGTTGCCT (site TCACGGTCTAG)”, the “recombinant barcode read abundance (log10)” value turned out to be 0.71. Under “TCTCGGTCTTGGGTTCTAACCTGTTGCCT (site TCTCGGTCTAG)” stands 0.277; under “TCTCGTTCTTGGGTTCTAACCTGTTGCTA (site AGAGTAACTGT)”, 0.127.

“TCTCGTTCTTGGGTTCTAACCTGTTGCTA (site TCTCGTTCTTA)”: the “recombinant barcode read abundance (log10)” value stood at 0.102. Under “TCTGATTCTTGGGTTCTAACCTGTTGCCG (site TCTGATTCTCG)” stands 0.197; under “TCTGATTCTTGGGTTCTAACCTGTTGCCG (site TCTTATTCTAG)”, 0.133; under “TCTGATTCTTGGGTTCTAACCTGTTGCGT (site TCTAATTCTAC)”, 0.352. With “TCTGATTCTTGGGTTCTAACCTGTTGCGT (site TCTCATTCTAC)” the figure was 0.00698; with “TCTGATTCTTGGGTTCTAACCTGTTGCGT (site TCTGATTCTAC)”, 1.4; with “TCTGATTCTTGGGTTCTAACCTGTTGCGT (site TCTTATTCTAC)”, 0.212.

For “TCTGGCACTTGGGTTCTAACCTGTTGCCT (site TCCAGCACTAG)”, the “recombinant barcode read abundance (log10)” value amounted to 0.205. For the sequence “TCTGGCACTTGGGTTCTAACCTGTTGCCT (site TCTGGCACTAG)”, the “recombinant barcode read abundance (log10)” value stood at 0.0487. With “TCTGGCCCTTGGGTTCTAACCTGTTGCCT (site CACCCTTCTGA)” the figure was 0.124; with “TCTGGCCCTTGGGTTCTAACCTGTTGCCT (site TCTGGCCCTAG)”, 0.478. With “TCTGTATCTTGGGTTCTAACCTGTTGCCT (site ACTGTATCTAG)” the figure was 0.28; with “TCTGTATCTTGGGTTCTAACCTGTTGCCT (site CCTGTATCTAG)”, 0.0921; with “TCTGTATCTTGGGTTCTAACCTGTTGCCT (site GCTGTATCTAG)”, 0.152. Under “TCTGTATCTTGGGTTCTAACCTGTTGCCT (site TCTGTATCTAG)” stands 0.614; under “TCTTAGACTTGGGTTCTAACCTGTTGCCG (site TCTTAGACTAG)”, 0.231; under “TCTTAGACTTGGGTTCTAACCTGTTGCCG (site TCTTAGACTCG)”, 0.232. For the sequence “TCTTAGACTTGGGTTCTAACCTGTTGCCT (site TCTTAGACTAG)”, the “recombinant barcode read abundance (log10)” value is 0.0224. With “TCTTAGACTTGGGTTCTAACCTGTTGCCT (site TCTTAGACTCG)” the figure was 0.0132.

The values are drawn from the supplement of paper PMC11208160.
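Note: IS621 recombinase and bridge RNA in Escherichia coli cells.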
